Results from patent publication US10538532B2, “Hepatitis B antiviral agents” (ENANTA PHARMACEUTICALS, INC., priority 2016, dated 2020).

Columns and labels:
HBV = assay: HepAD38 antiviral assay: reduction of viral product accumulation (virion DNA by qPCR, HBsAg or HBeAg by ELISA); type: cell-based, hepatitis B virus; details: Hepatitis B virus, HePAD38, 120 h, HepAD38 cells, five days after compound addition; concentration reducing viral product accumulation by 50% relative to no drug controls; read-out: HepAD38 EC50
How it was run: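 HepAD38 cells were washed free of tetracycline, plated at 35,000 cells/well and given compounds diluted 1:200 from DMSO. After 5 days, or 8 days with media and compound refreshed on d2 and d5, virion DNA was measured by qPCR and HBsAg or HBeAg by ELISA. EC50 is the concentration giving 50% reduction of viral product versus no-drug controls.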

[1] = Compound toxicity, ATPLite total ATP levels; type: cell-based; details: human, HepAD38 cells, three days after compound addition, concentration reducing total ATP levels by 50% relative to no drug controls
Experimental: Methods: HepAD38 cells are maintained as previously reported (Ladner et al, Antimicrob. Agents Chemother. 1997, […], 1715). Briefly, cells are passaged upon attaining confluency in DMEM/F12 media in the presence of 10% FBS, Penn/Strep, 250 μg/mL G418, and 1 ug/ml tetracycline. Novel compounds are screened by first washing cells three times with PBS to remove tetracycline, and plating in 96 well plates at 35,000 cells/well. Compounds dissolved in DMSO are then diluted 1:200 into wells containing cells. Five days after compound addition, material is harvested for analysis. For an extended 8 day analysis, cells are plated and treated as described above, but media and compound are refreshed on d2 and d5 post initial treatment.
Compound toxicity is evaluated by seeding cells at 15,000 cells/well and treating with compound as described above.

Structure (SMILES): [N-]=[N+]=N[C@]1(CO)CC2CC[C@@H](C1)[C@H]2S(=O)(=O)c1cc(C(=O)Nc2cc(F)c(F)c(F)c2)ccc1Cl [Example 287]
- EC50 (HBV): 0.1 to 0.4 µM
- CC50 at 3 days ([1]; class symbols): > 25 µM

Structure (SMILES): COC(=O)N[C@H](C(=O)NC[C@@]1(O)CC2CC[C@@H](C1)[C@H]2S(=O)(=O)c1cc(C(=O)Nc2cc(F)c(F)c(F)c2)ccc1Cl)C(C)C [Example 288]
- EC50 (HBV): 0.1 to 0.4 µM
- CC50 at 3 days ([1]; class symbols): 10 to 25 µM

Structure (SMILES): COC(=O)N1C[C@]2(CC3CC[C@@H](C2)[C@H]3S(=O)(=O)c2cc(C(=O)Nc3cc(F)c(F)c(F)c3)ccc2Cl)OC1=O [Example 289]
- EC50 (HBV): 0.1 to 0.4 µM
- CC50 at 3 days ([1]; numeric bounds): > 12.5 µM

Structure (SMILES): C=CCOC(=O)OC[C@]1(O)CC2CC[C@@H](C1)[C@H]2S(=O)(=O)c1cc(C(=O)Nc2cc(F)c(F)c(F)c2)ccc1Cl [Example 290]
- EC50 (HBV): < 0.1 µM
- CC50 at 3 days ([1]; class symbols): > 25 µM

Structure (SMILES): N#CC[C@]1(O)CC2CC[C@@H](C1)[C@H]2S(=O)(=O)c1cc(C(=O)Nc2cc(F)c(F)c(F)c2)ccc1Cl [Example 291]
- EC50 (HBV): < 0.1 µM
- CC50 at 3 days ([1]; class symbols): 10 to 25 µM

Structure (SMILES): N#C[C@]1(CO)CC2CC[C@@H](C1)[C@H]2S(=O)(=O)c1cc(C(=O)Nc2cc(F)c(F)c(F)c2)ccc1Cl [Example 292]
- EC50 (HBV): < 0.1 µM
- CC50 at 3 days ([1]; class symbols): 10 to 25 µM

Structure (SMILES): CS(=O)(=O)OC[C@@H]1CC2CC[C@@H](C1)[C@H]2S(=O)(=O)c1cc(C(=O)Nc2cc(F)c(F)c(F)c2)ccc1Cl [Example 293]
- EC50 (HBV): < 0.1 µM
- CC50 at 3 days ([1]; numeric bounds): > 6.25 µM

Structure (SMILES): O=C(Nc1cc(F)c(F)c(F)c1)c1ccc(Cl)c(S(=O)(=O)[C@H]2CC3CCC(C2)[C@]3(O)CNS(=O)(=O)C2CC2)c1 [Example 294]
- EC50 (HBV): < 0.1 µM
- CC50 at 3 days ([1]; numeric bounds): > 6.25 µM

Structure (SMILES): O=C(Nc1cc(F)c(F)c(F)c1)c1ccc(Cl)c(S(=O)(=O)[C@H]2CC3CCC(C2)[C@]3(O)CNS(=O)(=O)c2cccnc2)c1 [Example 295]
- EC50 (HBV): < 0.1 µM
- CC50 at 3 days ([1]; numeric bounds): > 12.5 µM

Structure (SMILES): O=C(Nc1cc(F)c(F)c(F)c1)c1ccc(Cl)c(S(=O)(=O)[C@H]2CC3CCC(C2)[C@]3(O)CNS(=O)(=O)c2ccccn2)c1 [Example 296]
- EC50 (HBV): < 0.1 µM
- CC50 at 3 days ([1]; numeric bounds): > 6.25 µM

Structure (SMILES): CC(C)(C)OC(=O)NC1CC2CC[C@@H](C1)[C@H]2S(=O)(=O)c1cc(C(=O)Nc2cc(F)c(F)c(F)c2)ccc1Cl (stereo partly shown) [Example 297]
- EC50 (HBV): < 0.1 µM
- CC50 at 3 days ([1]; numeric bounds): > 6.25 µM

Structure (SMILES): NC1CC2CC[C@@H](C1)[C@H]2S(=O)(=O)c1cc(C(=O)Nc2cc(F)c(F)c(F)c2)ccc1Cl (stereo partly shown) [Example 298]
- EC50 (HBV): 0.1 to 0.4 µM
- CC50 at 3 days ([1]; class symbols): 10 to 25 µM

Structure (SMILES): CS(=O)(=O)NC1CC2CC[C@@H](C1)[C@H]2S(=O)(=O)c1cc(C(=O)Nc2cc(F)c(F)c(F)c2)ccc1Cl (stereo partly shown) [Example 299]
- EC50 (HBV): < 0.1 µM
- CC50 at 3 days ([1]; class symbols): > 25 µM

Structure (SMILES): COC(=O)N[C@@H](C(=O)NC1CC2CC[C@@H](C1)[C@H]2S(=O)(=O)c1cc(C(=O)Nc2cc(F)c(F)c(F)c2)ccc1Cl)C(C)C (stereo partly shown) [Example 300]
- EC50 (HBV): < 0.1 µM
- CC50 at 3 days ([1]; numeric bounds): > 6.25 µM

Structure (SMILES): O=C(Nc1cc(F)c(F)c(F)c1)c1ccc(Cl)c(S(=O)(=O)[C@H]2CC3CCC(C2)[C@@]3(O)c2nccs2)c1 [Example 301]
- EC50 (HBV): > 0.4 µM
- CC50 at 3 days ([1]; class symbols): 10 to 25 µM

Structure (SMILES): O=C(Nc1cc(F)c(F)c(F)c1)c1ccc(Cl)c(S(=O)(=O)[C@H]2CC3CCC(C2)[C@]3(O)c2ncc[nH]2)c1 [Example 302]
- EC50 (HBV): < 0.1 µM
- CC50 at 3 days ([1]; class symbols): 10 to 25 µM

Structure (SMILES): O=C(Nc1cc(F)c(F)c(F)c1)c1ccc(Cl)c(S(=O)(=O)[C@H]2CC3CCC(C2)[C@H]3c2ncc[nH]2)c1 [Example 303]
- EC50 (HBV): < 0.1 µM
- CC50 at 3 days ([1]; class symbols): < 10 µM

Structure (SMILES): [N-]=[N+]=NC[C@@H]1CC2CC[C@@H](C1)[C@H]2S(=O)(=O)c1cc(C(=O)Nc2cc(F)c(F)c(F)c2)ccc1Cl [Example 304]
- EC50 (HBV): 0.1 to 0.4 µM
- CC50 at 3 days ([1]; numeric bounds): > 6.25 µM

Structure (SMILES): O=C1NC[C@@]2(CC3CC[C@@H](C2)[C@H]3S(=O)(=O)c2cc(C(=O)Nc3cc(F)c(F)c(F)c3)ccc2Cl)O1 [Example 306]
- EC50 (HBV): < 0.1 µM
- CC50 at 3 days ([1]; numeric bounds): > 12.5 µM

Structure (SMILES): CS(=O)(=O)NC[C@]1(O)CC2CC[C@@H](C1)[C@H]2S(=O)(=O)c1cc(C(=O)Nc2cc(F)c(F)c(F)c2)ccc1Cl [Example 307]
- EC50 (HBV): < 0.1 µM
- CC50 at 3 days ([1]; class symbols): > 25 µM
